The results in this text go back to article PMC5740388, “In Vitro Antibacterial Properties of Cefiderocol, a Novel Siderophore Cephalosporin, against Gram-Negative Bacteria” (Antimicrobial Agents and Chemotherapy, 2017).

Test [1] concerns the target T1, PBP1b of P. aeruginosa ATCC 27853 (Pseudomonas aeruginosa, UniProt G3XD31).
T1 construct: gene mrcB
T1 sequence (G3XD31 1-774): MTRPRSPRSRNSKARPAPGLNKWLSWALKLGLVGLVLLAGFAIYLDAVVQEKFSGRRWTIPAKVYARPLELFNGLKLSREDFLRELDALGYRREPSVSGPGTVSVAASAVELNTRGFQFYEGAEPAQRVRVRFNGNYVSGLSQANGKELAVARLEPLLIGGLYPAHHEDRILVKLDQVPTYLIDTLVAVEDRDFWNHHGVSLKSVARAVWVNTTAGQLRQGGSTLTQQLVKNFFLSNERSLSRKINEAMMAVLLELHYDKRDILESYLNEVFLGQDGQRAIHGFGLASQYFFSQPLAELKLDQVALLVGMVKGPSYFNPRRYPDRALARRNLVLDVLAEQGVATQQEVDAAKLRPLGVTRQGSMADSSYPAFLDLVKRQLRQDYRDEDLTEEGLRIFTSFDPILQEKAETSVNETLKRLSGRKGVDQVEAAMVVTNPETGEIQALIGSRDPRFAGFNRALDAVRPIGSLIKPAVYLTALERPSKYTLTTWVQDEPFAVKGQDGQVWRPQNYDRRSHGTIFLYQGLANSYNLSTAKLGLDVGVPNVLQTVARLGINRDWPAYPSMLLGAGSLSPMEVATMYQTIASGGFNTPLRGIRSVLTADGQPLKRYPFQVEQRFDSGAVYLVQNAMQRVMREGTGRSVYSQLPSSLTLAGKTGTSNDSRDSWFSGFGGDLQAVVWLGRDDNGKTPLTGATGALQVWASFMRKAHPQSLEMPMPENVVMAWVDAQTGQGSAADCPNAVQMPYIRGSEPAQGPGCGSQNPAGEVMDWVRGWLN
In words: competition with […]benzylpenicillin for PBPs. In kind it is binding. The note with it: covalent; read-out: IC50 (μg/ml) / Ceftazidime.

Test [2] addresses T2, PBP2 of A. baumannii ATCC 17978 (Acinetobacter baumannii, UniProt D0C8Z9).
T2 construct: gene mrdA
T2 sequence (D0C8Z9 1-672): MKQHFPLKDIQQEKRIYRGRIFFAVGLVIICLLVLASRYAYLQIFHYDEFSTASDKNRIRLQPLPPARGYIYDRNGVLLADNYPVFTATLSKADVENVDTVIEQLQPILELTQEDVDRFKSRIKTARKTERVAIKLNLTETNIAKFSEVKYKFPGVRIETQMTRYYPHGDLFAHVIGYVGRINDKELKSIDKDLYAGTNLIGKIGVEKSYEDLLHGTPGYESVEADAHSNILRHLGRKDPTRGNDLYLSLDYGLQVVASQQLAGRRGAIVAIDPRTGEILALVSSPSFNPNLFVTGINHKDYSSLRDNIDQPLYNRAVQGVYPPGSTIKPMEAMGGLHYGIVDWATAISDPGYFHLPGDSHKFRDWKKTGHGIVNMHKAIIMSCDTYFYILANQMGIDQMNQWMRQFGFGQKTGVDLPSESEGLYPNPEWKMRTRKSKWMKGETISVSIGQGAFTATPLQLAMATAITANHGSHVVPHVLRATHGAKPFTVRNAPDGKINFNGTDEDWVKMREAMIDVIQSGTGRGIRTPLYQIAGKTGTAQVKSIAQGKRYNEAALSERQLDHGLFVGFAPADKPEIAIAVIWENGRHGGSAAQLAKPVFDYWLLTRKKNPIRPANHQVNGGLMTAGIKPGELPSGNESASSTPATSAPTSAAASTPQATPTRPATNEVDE
In words: competition with Bocillin FL for PBPs. Particulars: covalent. In kind it is binding. The source says:
competition with Bocillin FL for PBPs on PBP2 of A. baumannii ATCC 17978

Test [3] deals with T3, PBP1a of P. aeruginosa ATCC 27853 (Pseudomonas aeruginosa, UniProt Q07806).
T3 construct: gene mrcA
T3 sequence (Q07806 whole entry): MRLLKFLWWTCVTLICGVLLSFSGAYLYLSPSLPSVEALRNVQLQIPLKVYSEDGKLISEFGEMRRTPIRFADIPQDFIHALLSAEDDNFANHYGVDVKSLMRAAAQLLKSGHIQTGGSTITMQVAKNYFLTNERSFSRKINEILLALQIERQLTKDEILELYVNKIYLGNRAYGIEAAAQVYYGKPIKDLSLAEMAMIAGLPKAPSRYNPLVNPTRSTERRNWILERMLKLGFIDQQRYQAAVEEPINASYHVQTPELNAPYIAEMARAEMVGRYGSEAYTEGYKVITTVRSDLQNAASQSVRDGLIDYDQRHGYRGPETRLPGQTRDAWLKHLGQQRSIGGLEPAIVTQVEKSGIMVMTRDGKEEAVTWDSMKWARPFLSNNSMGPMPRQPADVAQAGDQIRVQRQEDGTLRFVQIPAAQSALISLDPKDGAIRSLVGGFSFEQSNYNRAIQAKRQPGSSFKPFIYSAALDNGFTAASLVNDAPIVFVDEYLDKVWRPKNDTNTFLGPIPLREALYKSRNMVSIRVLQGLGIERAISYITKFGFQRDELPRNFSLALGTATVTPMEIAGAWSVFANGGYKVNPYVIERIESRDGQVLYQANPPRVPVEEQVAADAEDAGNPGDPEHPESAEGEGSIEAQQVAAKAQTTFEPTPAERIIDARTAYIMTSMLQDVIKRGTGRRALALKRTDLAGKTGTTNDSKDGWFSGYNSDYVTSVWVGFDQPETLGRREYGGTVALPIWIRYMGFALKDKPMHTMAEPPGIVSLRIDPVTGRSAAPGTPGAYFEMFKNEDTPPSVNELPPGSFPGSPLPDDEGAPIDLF
The test is described as follows: competition with […]benzylpenicillin for PBPs. Type of test: binding. The note with it: covalent.

Test [4] relates to T4, PBP1a and PBP1b of A. baumannii ATCC 17978 (not separated).
T4 construct: gene ponA; one joint IC50 for PBP1a and PBP1b
In words: competition with Bocillin FL for PBPs. In kind it is binding, Acinetobacter baumannii. The note with it: covalent; joint value for PBP1a and PBP1b. The source says: competition with Bocillin FL for PBPs on PBP1a and PBP1b of A. baumannii ATCC 17978 (not separated)

The target of test [5] is T5, PBP3 of K. pneumoniae SR22291 (Klebsiella pneumoniae, UniProt A0A0H3GN85).
T5 construct: gene ftsI
T5 sequence (A0A0H3GN85 1-588): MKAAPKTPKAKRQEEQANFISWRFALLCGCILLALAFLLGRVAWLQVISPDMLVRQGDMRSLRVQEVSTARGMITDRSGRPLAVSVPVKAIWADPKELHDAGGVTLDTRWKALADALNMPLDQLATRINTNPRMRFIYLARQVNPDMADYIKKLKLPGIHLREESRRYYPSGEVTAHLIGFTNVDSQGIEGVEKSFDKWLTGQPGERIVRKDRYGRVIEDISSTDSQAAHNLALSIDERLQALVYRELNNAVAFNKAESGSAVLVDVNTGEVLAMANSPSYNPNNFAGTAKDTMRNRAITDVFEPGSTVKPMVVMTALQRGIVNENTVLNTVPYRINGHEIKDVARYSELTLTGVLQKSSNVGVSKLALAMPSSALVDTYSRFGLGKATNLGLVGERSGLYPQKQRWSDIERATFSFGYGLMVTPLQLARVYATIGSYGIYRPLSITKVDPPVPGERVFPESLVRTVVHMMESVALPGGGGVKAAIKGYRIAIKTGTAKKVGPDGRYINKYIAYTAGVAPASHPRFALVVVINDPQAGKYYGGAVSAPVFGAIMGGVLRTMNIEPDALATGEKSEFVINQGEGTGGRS
The test is described as follows: competition with […]benzylpenicillin for PBPs. The note with it: covalent. In kind it is binding.

In test [6] the target is T6, PBP3 of P. aeruginosa ATCC 27853 (Pseudomonas aeruginosa, UniProt G3XD46).
T6 construct: gene ftsI
T6 sequence (G3XD46 whole entry): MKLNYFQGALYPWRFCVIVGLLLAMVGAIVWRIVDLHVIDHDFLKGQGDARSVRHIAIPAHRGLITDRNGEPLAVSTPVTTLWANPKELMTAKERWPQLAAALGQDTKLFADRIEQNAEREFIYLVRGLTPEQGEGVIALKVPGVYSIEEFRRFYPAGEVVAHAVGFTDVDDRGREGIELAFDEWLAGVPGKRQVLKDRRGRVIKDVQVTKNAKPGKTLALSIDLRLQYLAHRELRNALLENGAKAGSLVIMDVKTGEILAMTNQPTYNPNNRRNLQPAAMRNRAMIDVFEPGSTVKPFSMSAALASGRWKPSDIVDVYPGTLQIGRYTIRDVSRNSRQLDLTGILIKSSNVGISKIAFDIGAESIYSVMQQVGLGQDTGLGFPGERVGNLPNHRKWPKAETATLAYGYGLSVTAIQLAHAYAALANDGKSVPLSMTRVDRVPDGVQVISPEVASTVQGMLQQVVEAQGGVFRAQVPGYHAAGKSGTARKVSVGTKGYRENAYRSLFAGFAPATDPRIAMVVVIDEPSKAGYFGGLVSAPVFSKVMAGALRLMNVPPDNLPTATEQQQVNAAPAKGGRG
In words: competition with […]benzylpenicillin for PBPs. In kind it is binding. The note with it: covalent.

[7] abbreviates: read-out: IC50 (μg/ml) / P. aeruginosa ATCC 27853 / Ceftazidime (converted).

Values after ≈ are worked out from the molar mass of the structure shown. Where two headings read alike, the source gives them in different places.

In the case of `CC(C)(O/N=C(\C(=O)N[C@@H]1C(=O)N2C(C(=O)[O-])=C(C[N+]3(CCNC(=O)c4ccc(O)c(O)c4Cl)CCCC3)CS[C@H]12)c1csc(N)n1)C(=O)O` [cefiderocol], the IC50 is > 5.32 µM in test [1]; 3.07 µM in test [2] (read-out: IC50 (μg/ml) / A. baumannii ATCC 17978 ^a / Cefiderocol (converted)); 1.13 µM in test [3] (read-out: IC50 (μg/ml) / P. aeruginosa ATCC 27853 / Cefiderocol (converted)); 0.0824 µM in test [5] (read-out: IC50 (μg/ml) / K. pneumoniae SR22291 / Cefiderocol (converted)); 0.0798 µM in test [6] (read-out: IC50 (μg/ml) / / Cefiderocol (converted)). Also, the “IC50 (μg/ml) / A. baumannii ATCC 17978 ^a / Cefiderocol” value in test [4] worked out at 1.05 µg/mL (≈ 1.4 µM).

Take `CC(C)(O/N=C(\C(=O)N[C@@H]1C(=O)N2C(C(=O)[O-])=C(C[n+]3ccccc3)CS[C@H]12)c1csc(N)n1)C(=O)O` [ceftazidime]: the IC50 is > 7.32 µM in test [1]; > 117 µM in test [2] (read-out: IC50 (μg/ml) / A. baumannii ATCC 17978 ^a / Ceftazidime); 6.62 µM in test [3] (setting [7]); 0.402 µM in test [5] (read-out: IC50 (μg/ml) / K. pneumoniae SR22291 / Ceftazidime (converted)); 0.165 µM in test [6] (setting [7]). The “IC50 (μg/ml) / A. baumannii ATCC 17978 ^a / Ceftazidime” value in test [4] was found to be 0.91 µg/mL (≈ 1.66 µM).
